How the values were obtained:
MAPK p38 phosphorylation = experiment: MAPK p38 Activation Assay (western blot), Panc-1; format: cell-based, human; conditions: at 10 μM, Panc-1 pancreatic cancer cell line; starred symbols = activation
Method in brief: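 Panc-1 cells (KRas G12D) were treated with compound for 6 h at 37 °C, at 10 μM or as serial dilutions for IC50, with 0.3% DMSO. Method 1 used overnight serum-starved cells (0.5% FBS) stimulated with 1.5 ng/ml EGF for 15 min; Method 2 used unstimulated cells in 10% FBS. Phospho-p38 (Thr180/Tyr182) was detected by western blot.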

KRas G12C mutant = experiment: Ras GTP Binding Domain Inhibition Assay (Ras Superfamily Assay); conditions: 20 μM compound
Method in brief: (§1)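 Ni-plate capture of His-tagged protein (10-30 μg/mL, o/n 4° C); cpd 20 μM or dilution series, 1% DMSO, 3 h RT ± Sos 556-1049 last h; 100 nM Cy-labelled GTP 45 min RT; 3× wash; fluorescence read.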

KRas Q61H mutant = experiment: as above; conditions: 20 μM compound
Method in brief: as §1

Rho-A = target: T1, Rho-A (Homo sapiens, UniProt P61586); experiment: as above; conditions: read-out: Rho-A: % inh..
T1 construct: made in house
Method in brief: as §1

T1 sequence (P61586 whole entry): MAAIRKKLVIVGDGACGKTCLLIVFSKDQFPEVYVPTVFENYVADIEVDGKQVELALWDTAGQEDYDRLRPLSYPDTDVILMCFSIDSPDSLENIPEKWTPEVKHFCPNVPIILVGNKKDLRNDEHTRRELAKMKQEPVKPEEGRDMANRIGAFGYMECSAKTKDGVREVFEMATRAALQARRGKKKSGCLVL

- KRas G12C mutant + SOS: % inh. (KRas G12C mutant; with SOS): A (A = 1-25% inhibition)
- KRas G12C mutant: % inh. (KRas G12C mutant; without SOS): B (B = 26-49% inhibition)
- KRas Q61H mutant + SOS: % inh. (KRas Q61H mutant; with SOS): A (A = 1-25% inhibition)
- KRas Q61H mutant: % inh. (KRas Q61H mutant; without SOS): B (B = 26-49% inhibition)
- inhibition at 20 µM (Rho-A): 50 to 75%
Compound: COc1cc(Nc2nc(-c3nccn3C)nn3cc(-c4ccn(C(C)C)n4)c(-c4ccccc4)c23)ncn1 [Compound 22, 6-(1-Isopropyl-1H-pyrazol-3-yl)-N-(6-methoxypyrimidin-4-yl)-2-(1-methyl-1H-imidazol-2-yl)-5-phenylpyrrolo[2,1-f][1,2,4]triazin-4-amine]
- % inh of MAPK p38 in Panc-1 (MAPK p38 phosphorylation): H* (H* ≥ 100% activation)

Reference: patent US12459951B2, “Compounds that interact with RAS superfamily proteins for treatment of cancers, inflammatory diseases, rasopathies, and fibrotic disease” (SHY Therapeutics, LLC, priority 2022, dated 2025)
